Laboratory results: PMC3530532, “Corticosteroid-Binding Globulin: Structure-Function Implications from Species Differences” (PLoS ONE, 2012)
Like-named read-outs stand apart in the source and are kept apart here.

How the values were obtained:
human CBG = biological target: human CBG; set-up: method as in PMID 20631013; settings: 37°C, fluorescence measurements; cited from earlier work
CBG = settings: cited from earlier work
uncleaved human CBG = biological target: uncleaved human CBG; set-up: method as in PMID 21325280; settings: cited from earlier work
Rat CBG-RCL1 = biological target: T1, Rat CBG-RCL1 (Rattus norvegicus, UniProt P31211, A357V/P358T); assay: Isothermal titration calorimetry, steroid titrated to uncleaved rat CBG-RCL1; format: binding; settings: ITC, 25°C
T1 construct: residues 5 to 374 of rat CBG (P31211); GST (N, cleaved yes); made in house; host or cells: E. coli BL21 Star (DE3)
T1 sequence (P31211 27-396 A357V/P358T): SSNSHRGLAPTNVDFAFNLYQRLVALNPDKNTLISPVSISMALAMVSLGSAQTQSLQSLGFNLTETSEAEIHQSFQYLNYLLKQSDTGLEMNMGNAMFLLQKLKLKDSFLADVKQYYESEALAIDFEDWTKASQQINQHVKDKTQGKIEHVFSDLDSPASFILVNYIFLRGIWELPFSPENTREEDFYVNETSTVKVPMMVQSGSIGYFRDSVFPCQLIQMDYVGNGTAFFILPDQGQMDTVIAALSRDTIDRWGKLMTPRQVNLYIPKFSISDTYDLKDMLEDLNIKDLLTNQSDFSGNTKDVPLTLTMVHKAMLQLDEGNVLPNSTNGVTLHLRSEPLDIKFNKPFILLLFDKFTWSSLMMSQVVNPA
Experimental: The coding sequences of residues 11 to 383 of human CBG (Swiss-Prot entry P08185) and residues 5 to 374 of rat CBG (P31211) were cloned into a pGEX-2T vector (GE Healthcare, Uppsala), yielding N-terminal glutathione-S-transferase (GST) fusion proteins. Mutations were introduced using a two-stage PCR procedure based on the QuikChange (Stratagene, Santa Clara) site-directed mutagenesis protocol. All experiments with human CBG were conducted with a mutant in which surface residue Lys126 was replaced by alanine in order to facilitate crystallization. Wild-type rat CBG (rat CBG-WT) and rat CBG mutants CBG-RCL1, CBG-RCL2 and CBG-RCL3 were produced to probe the function of the RCL residues in rat CBG. All gene constructs were confirmed by DNA sequencing prior to protein production.
The GST-tagged human and rat CBG variants were produced in E. coli BL21 Star™ (DE3) cells (Invitrogen, Carlsbad) using the ZYM-5052 auto-inducing medium. For each variant, 10 L of ZYM-5052 medium containing 100 µg/mL ampicillin were inoculated with an overnight culture of a single clone. The flasks were incubated at 37°C until the optical density at 600 nm reached 0.3. The temperature was then lowered to 20°C, and the cells were allowed to grow for an additional 20 h. The pellet was resuspended in PBS buffer (pH 7.4) containing 5 mM EDTA after cell harvesting (4 mL of buffer per gram of pellet).
The protein samples were dialyzed against ITC buffer (20 mM potassium phosphate, 50 mM NaCl, pH 7.4) and titrated with steroids in a VP-ITC microcalorimeter (Microcal, Piscataway). All solutions were filtered (0.2 µm filter pore size) and degassed for 30 min prior to the titration experiments. The sample cell was filled with protein solution containing 15 µM rat CBG or 20 µM human CBG and titrated with steroid solutions containing 150 µM and 200 µM ligand, respectively. The titrations consisted of an initial injection of 2 µL followed by 25 consecutive injections of 10 µL ligand solution at 25°C. A spacing of 240 sec between the injections was used to allow a return to the baseline. Data points from the initial injection, which are generally affected by diffusion during the initial equilibration period after experiment setup, were discarded prior to data analysis. […] The binding curve was generated by plotting the heats of injections against the ratio of ligand to protein in the cell. Integrated heat data were analyzed using nonlinear regression fit with a one-site-binding model in the Origin-7™ software provided with the VP-ITC. Changes in the free energy and entropy can be calculated using the equation: ΔG° = −RTlnK = ΔH°−TΔS°. In this equation ΔG° is the change in Gibbs free energy, R the universal gas constant, T the temperature, and K the association constant. […]

C[C@]12CCC(=O)C=C1CC[C@@H]1[C@@H]2[C@@H](O)C[C@@]2(C)[C@H]1CC[C@]2(O)C(=O)CO [Hydrocortisone]
Kd (human CBG): 18 nM | fraction circulating free in plasma (CBG): 4–5% | fraction of cortisol in plasma bound by CBG (CBG): 80–90% | Kd (uncleaved human CBG; 22°C, uncleaved human CBG, fluorescence titration, read-out: binding affinity): 26.9 nM | Kd (uncleaved human CBG; 37°C, uncleaved human CBG-WT, read-out: K d 37°C): 292 ± 19 nM | TΔS° (Rat CBG-RCL1): -29.02 kcal/mol | ΔG° (Rat CBG-RCL1): -9.61 kcal/mol | ΔH° (Rat CBG-RCL1): -38.62 kcal/mol | Kd (Rat CBG-RCL1; single titration): 95 ± 7 nM
